Columns and labels:
Assay type in all cases: cell-based
[1] = system: human peripheral blood mononuclear cells (hPBMC); assay: human PBMC assay, Example 5 (96 well plates, premixed); conditions: for IFN-α Mean / IFN-γ Mean: mean of donors 28051-28054
Protocol: (§1) Hexameric oligonucleotides were tested for immunomodulatory activity alone and complexed with lactic acid/glycolic acid copolymer microcarrier beads using a human peripheral blood mononuclear cells (hPBMC) assay. Peripheral blood was collected from healthy volunteers by venipuncture using heparinized syringes. Blood was layered onto a FICOLL® (Amersham Pharmacia Biotech) cushion and centrifuged. hPBMCs, located at the FICOLL® interface, were collected, then washed twice with cold phosphate buffered saline (PBS). The cells were resuspended and cultured in 48 well plates at 2×10^6 cells/mL at 37° C. in RPMI 1640 with 10% heat-inactivated human AB serum plus 50 units/mL penicillin, 50 μg/mL streptomycin, 300 μg/mL glutamine, 1 mM sodium pyruvate, and 1×MEM non-essential amino acids (NEAA).
(§2) Oligonucleotides were tested as single agents, or in combination with PLGA microspheres (unmodified or cationic). All oligonucleotides contained 100% phosphorothioate linkages and were tested at 20 μg/ml. The PLGA microcarriers were used at 250 μg/ml. When oligos were tested with PLGA microcarriers, the oligo and the microcarriers were added at the same time to the culture. The cells were cultured in the in the presence of test samples for 24 hours, then cell-free medium was collected from each well and assayed for IFN-γ and IFN-α concentration. Two different oligonucleotides were used as controls: a first oligonucleotide known to have immunostimulatory activity (a 22mer oligonucleotide containing an ISS (“ISS+,” 5′-[…]-3′(SEQ ID NO:2)) and a second oligonucleotide of similar sequence but lacking immunostimulatory activity (“ISS−,” 5′-[…]-3′ (SEQ ID NO:1)). SAC (PANSORBIN® CalBiochem, 1/5000 dilution) and a untreated culture were used as additional positive and negative controls, respectively. SAC contains Staph. aureus (Cowan I) cell material. All samples were assayed in duplicate.
(§3) IFN-γ and IFN-α were assayed using CYTOSCREEN™ ELISA kits from BioSource International, Inc., according to the manufacturer's instructions.
The immunomodulatory activity of the oligonucleotides used in Examples 3 and 4 was confirmed with the human PBMC assay using PBMCs from an additional four donors (donors 28051-28054). Oligonucleotides were tested alone or in combination with cationic PLGA as described in Example 3, except that 96 well plates were used instead of 48 well plates and the oligonucleotides were premixed with the cationic microspheres at room temperature for 15 minutes before they were added to the culture, rather than being added simultaneously to the culture.

[2] = system: human peripheral blood mononuclear cells (hPBMC); assay: human PBMC assay, Example 3 (oligo and PLGA added at the same time, 48 well plates); conditions: for IFN-α / IFN-γ: oligo 20 μg/ml, PLGA 250 μg/ml, 24 hours; for IFN-α Mean / IFN-γ Mean: mean of donors 28033, 28034
Protocol: as §1, §2, §3

[3] = system: human peripheral blood mononuclear cells (hPBMC); assay: human PBMC assay, Example 6
Summary of the method: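 PBMCs at 2×10^6 cells/mL in RPMI with 10% human AB serum, 37° C., given 100% phosphorothioate oligonucleotides at 20 μg/ml, alone or with PLGA microcarriers at 250 μg/ml, added together or premixed 15 min. After 24 h, supernatant IFN-γ and IFN-α measured by ELISA in duplicate.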

[4] = system: human peripheral blood mononuclear cells (hPBMC); assay: human PBMC assay, Example 7 (oligo 20 μg/ml, cPLGA 100 μg/ml)
Summary of the method: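 hPBMC from healthy donors at 2×10^6 cells/mL in RPMI 1640 + 10% human AB serum, 37° C; phosphorothioate oligos at 20 μg/ml, alone or premixed 15 min at room temperature with cationic PLGA microspheres at 100 μg/ml. IFN-γ and IFN-α in supernatants measured by ELISA after 24 h, duplicates.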

[5] = system: human peripheral blood mononuclear cells (hPBMC); assay: human PBMC assay, Example 4 (oligos and PLGA premixed 15 minutes)
Protocol: as §1, §2, §3
Additional hexameric and pentameric oligonucleotides were tested for immunomodulatory activity in the PBMC assay. Oligonucleotides 6-6 (5′-TCGAGA-3′), 6-8 (5′-GTCGAC-3′), 6-9 (5′-GTCGTT-3′), 6-2 (5′-TCGTTT-3′), 6-3 (5′-TTCGTT-3′), 6-4 (5′-TTTCGT-3′), 5-1 (5′-TCGTC-3′), and 5-2 (5′-TCGTT-3′) were tested alone or in combination with cationic PLGA as described in Example 3 except that the oligos and PLGA were premixed for 15 minutes room temperature before addition to the cultures. The test articles were assayed using PBMC isolated from donors 28044 and 28045.

[6] = delivered as IMO/MC complexes (cPLGA)
[7] = in combination with cationic PLGA

5′-AACGTT-3′ [Oligonucleotide 6-16]
immunomodulatory activity [1, 6]: variable activity | IFN-α ([1]; donor 28051): 2 pg/mL | IFN-γ ([1]; donor 28051): 1 pg/mL | IFN-α ([1]; donor 28052): 1 pg/mL | IFN-γ ([1]; donor 28052): 2 pg/mL | IFN-α ([1]; donor 28053): 1 pg/mL | IFN-γ ([1]; donor 28053): 2 pg/mL | IFN-α ([1]; donor 28054): 2 pg/mL | IFN-γ ([1]; donor 28054): 8 pg/mL | IFN-α Mean [1]: 2 pg/mL | IFN-γ Mean [1]: 3 pg/mL | IFN-α ([2]; donor 28033): 3 pg/mL | IFN-γ ([2]; donor 28033): 0 pg/mL | IFN-α ([2]; donor 28034): 48 pg/mL | IFN-γ ([2]; donor 28034): 3 pg/mL | IFN-α induction [2, 7]: induce IFN-α in one of the two donors | IFN-α Mean [2]: 26 pg/mL | IFN-γ Mean [2]: 2 pg/mL

5′-ATCGAT-3′ [Oligonucleotide 6-7]
immunomodulatory activity ([1]; delivered alone): inactive | immunomodulatory activity [1, 6]: highly active | IFN-α ([1]; donor 28051): 1 pg/mL | IFN-γ ([1]; donor 28051): 1 pg/mL | IFN-α ([1]; donor 28052): 0 pg/mL | IFN-γ ([1]; donor 28052): 1 pg/mL | IFN-α ([1]; donor 28053): 4 pg/mL | IFN-γ ([1]; donor 28053): 2 pg/mL | IFN-α ([1]; donor 28054): 1 pg/mL | IFN-γ ([1]; donor 28054): 2 pg/mL | IFN-α Mean [1]: 2 pg/mL | IFN-γ Mean [1]: 1 pg/mL | IFN-α ([2]; donor 28033): 8 pg/mL | IFN-γ ([2]; donor 28033): 0 pg/mL | IFN-α ([2]; donor 28034): 22 pg/mL | IFN-γ ([2]; donor 28034): 3 pg/mL | immunomodulatory activity [2, 7]: active | IFN-α Mean [2]: 15 pg/mL | IFN-γ Mean [2]: 2 pg/mL

5′-TCGTCG-3′ [Oligonucleotide 6-1]
immunomodulatory activity ([1]; delivered alone): inactive | immunomodulatory activity [1, 6]: highly active | IFN-α ([1]; donor 28051): 0 pg/mL | IFN-γ ([1]; donor 28051): 2 pg/mL | IFN-α ([1]; donor 28052): 2 pg/mL | IFN-γ ([1]; donor 28052): 3 pg/mL | IFN-α ([1]; donor 28053): 1 pg/mL | IFN-γ ([1]; donor 28053): 1 pg/mL | IFN-α ([1]; donor 28054): 4 pg/mL | IFN-γ ([1]; donor 28054): 2 pg/mL | IFN-α Mean [1]: 2 pg/mL | IFN-γ Mean [1]: 2 pg/mL | IFN-α ([2]; donor 28033): 0 pg/mL | IFN-γ ([2]; donor 28033): 0 pg/mL | IFN-α ([2]; donor 28034): 40 pg/mL | IFN-γ ([2]; donor 28034): 4 pg/mL | immunomodulatory activity [2, 7]: active | IFN-α Mean [2]: 20 pg/mL | IFN-γ Mean [2]: 2 pg/mL | IFN-α Mean ([3]; mean of volunteers 154-157): 0 pg/mL | IFN-γ Mean ([3]; mean of volunteers 154-157): 3 pg/mL | IFN-α ([3]; volunteer 154): 0 pg/mL | IFN-γ ([3]; volunteer 154): 0 pg/mL | IFN-α ([3]; volunteer 155): 0 pg/mL | IFN-γ ([3]; volunteer 155): 0 pg/mL | IFN-α ([3]; volunteer 156): 0 pg/mL | IFN-γ ([3]; volunteer 156): 11 pg/mL | IFN-α ([3]; volunteer 157): 0 pg/mL | IFN-γ ([3]; volunteer 157): 0 pg/mL

5′-TGACTGTGAACCTTAGAGATGA-3′ (DNA, all phosphorothioate, methylation of C not given here) [ISS−, reference compound]
IFN-α ([1]; donor 28051): 0 pg/mL | IFN-γ ([1]; donor 28051): 5 pg/mL | IFN-α ([1]; donor 28052): 3 pg/mL | IFN-γ ([1]; donor 28052): 2 pg/mL | IFN-α ([1]; donor 28053): 1 pg/mL | IFN-γ ([1]; donor 28053): 3 pg/mL | IFN-α ([1]; donor 28054): 5 pg/mL | IFN-γ ([1]; donor 28054): 2 pg/mL | IFN-α Mean [1]: 2 pg/mL | IFN-γ Mean [1]: 3 pg/mL | IFN-α ([2]; donor 28033): 0 pg/mL | IFN-γ ([2]; donor 28033): 3 pg/mL | IFN-α ([2]; donor 28034): 31 pg/mL | IFN-γ ([2]; donor 28034): 8 pg/mL | IFN-α Mean [2]: 15 pg/mL | IFN-γ Mean [2]: 5 pg/mL | IFN-α ([4]; donor 28115): 0 pg/mL | IFN-γ ([4]; donor 28115): 20 pg/mL | IFN-α ([4]; donor 28116): 0 pg/mL | IFN-γ ([4]; donor 28116): 22 pg/mL | IFN-α ([4]; donor 28117): 0 pg/mL | IFN-γ ([4]; donor 28117): 334 pg/mL | IFN-α ([4]; donor 28118): 0 pg/mL | IFN-γ ([4]; donor 28118): 14 pg/mL | IFN-α Mean ([4]; mean of donors 28115-28118): 0 pg/mL | IFN-γ Mean ([4]; mean of donors 28115-28118): 98 pg/mL | IFN-α ([3]; donor 28075): 41 pg/mL | IFN-γ ([3]; donor 28075): 15 pg/mL | IFN-α ([3]; donor 28076): 23 pg/mL | IFN-γ ([3]; donor 28076): 15 pg/mL | IFN-α ([3]; donor 28077): 54 pg/mL | IFN-γ ([3]; donor 28077): 12 pg/mL | IFN-α ([3]; donor 28078): 27 pg/mL | IFN-γ ([3]; donor 28078): 16 pg/mL | IFN-α Mean ([3]; mean of donors 28075-28078): 36 pg/mL | IFN-γ Mean ([3]; mean of donors 28075-28078): 15 pg/mL | IFN-α Mean ([3]; mean of volunteers 154-157): 0 pg/mL | IFN-γ Mean ([3]; mean of volunteers 154-157): 43 pg/mL | IFN-α ([3]; volunteer 154): 0 pg/mL | IFN-γ ([3]; volunteer 154): 0 pg/mL | IFN-α ([3]; volunteer 155): 0 pg/mL | IFN-γ ([3]; volunteer 155): 17 pg/mL | IFN-α ([3]; volunteer 156): 0 pg/mL | IFN-γ ([3]; volunteer 156): 58 pg/mL | IFN-α ([3]; volunteer 157): 0 pg/mL | IFN-γ ([3]; volunteer 157): 98 pg/mL | IFN-α ([5]; donor 28044): 0 pg/mL | IFN-γ ([5]; donor 28044): 410 pg/mL | IFN-α ([5]; donor 28045): 0 pg/mL | IFN-γ ([5]; donor 28045): 51 pg/mL | IFN-α Mean ([5]; mean of donors 28044, 28045): 0 pg/mL | IFN-γ Mean ([5]; mean of donors 28044, 28045): 231 pg/mL

— US8586555B2, “Immunomodulatory compositions, formulations, and methods for use thereof” (Dynavax Technologies Corporation, priority 2001, dated 2013)
